The source of these data is publication PMC7127602 (Bioorganic & Medicinal Chemistry, 2007).

SMILES strings stand for the structures.

This assay concerns the target SARS-CoV M^pro (Severe acute respiratory syndrome coronavirus, UniProt P0C6X7). Type of assay: biochemical.

With `O=C(Oc1cncc(Cl)c1)c1ccc(-c2ccccc2[N+](=O)[O-])o1` [compound 4], the “Increase in IC50 relative to compound 2” value was “threefold”. Then `O=C(Oc1cncc(Cl)c1)c1ccc(-c2cccc([N+](=O)[O-])c2)o1` [compound 5], with “eightfold”.
